What was measured:
SK-MEL-5 = format: cell-based; conditions: SK-MEL-5
M14 = format: cell-based; conditions: M14
HCC-2998 = format: cell-based; conditions: HCC-2998
HCT-116 = format: cell-based; conditions: HCT-116
HOP-92 = format: cell-based; conditions: HOP-92, five dose
CCRF-CEM = format: cell-based; conditions: CCRF-CEM
IGROV1 = format: cell-based; conditions: IGROV1
SK-OV-3 = format: cell-based; conditions: SK-OV-3
PC-3 = format: cell-based; conditions: PC-3
SF-539 = format: cell-based; conditions: SF-539
HL-60(TB) = format: cell-based; conditions: HL-60(TB); 10^−5 molar
TOP I (Topoisomerase I) [1] = target: T1, TOP I (Topoisomerase I) (Homo sapiens, UniProt P11387); assay: TOP I mediated supercoiled DNA relaxation assay; format: biochemical; conditions: five different concentrations; TopoGEN TG2005H, TG-2000H-1
T1 construct: purchased TopoGEN TG2005H
T1 sequence (P11387 1-765): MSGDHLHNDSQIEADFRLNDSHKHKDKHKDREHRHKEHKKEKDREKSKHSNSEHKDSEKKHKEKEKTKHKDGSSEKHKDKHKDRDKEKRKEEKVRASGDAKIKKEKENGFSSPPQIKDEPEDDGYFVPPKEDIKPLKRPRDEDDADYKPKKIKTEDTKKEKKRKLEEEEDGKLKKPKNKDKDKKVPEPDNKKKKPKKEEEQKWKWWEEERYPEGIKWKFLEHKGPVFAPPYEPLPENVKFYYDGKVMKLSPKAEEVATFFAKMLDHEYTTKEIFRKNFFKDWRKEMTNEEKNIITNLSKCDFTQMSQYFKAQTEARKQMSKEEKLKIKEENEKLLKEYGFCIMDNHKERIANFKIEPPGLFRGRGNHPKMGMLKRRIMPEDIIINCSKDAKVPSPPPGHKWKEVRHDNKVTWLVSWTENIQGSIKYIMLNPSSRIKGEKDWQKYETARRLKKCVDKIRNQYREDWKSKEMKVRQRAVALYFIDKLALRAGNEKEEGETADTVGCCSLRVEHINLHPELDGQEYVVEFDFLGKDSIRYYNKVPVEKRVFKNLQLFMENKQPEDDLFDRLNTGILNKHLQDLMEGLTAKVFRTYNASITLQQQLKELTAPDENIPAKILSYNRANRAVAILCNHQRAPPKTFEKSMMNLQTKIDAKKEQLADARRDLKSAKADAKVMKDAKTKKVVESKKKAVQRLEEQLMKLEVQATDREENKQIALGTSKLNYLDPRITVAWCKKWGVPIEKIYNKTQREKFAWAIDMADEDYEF

COLO 205 = format: cell-based; conditions: COLO 205
OVCAR-4 = format: cell-based; conditions: OVCAR-4
UACC-257 = format: cell-based; conditions: UACC-257
TOP I (Topoisomerase I) [2] = target: T1, TOP I (Topoisomerase I); assay: TOP I mediated supercoiled DNA relaxation assay; format: biochemical; conditions: primary assay at 25 and/or 50 μM
Experimental: According to the cell cytotoxicity, compounds 5, 7, 8, 16, 19, N2, N7, N8, N9, N14-N19, and N25 were also selected for primary TOP I and II activities assays at 25 and/or 50 μM (FIG. 2-4).

OVCAR-3 = format: cell-based; conditions: OVCAR-3; 10^−5 molar
BT-549 = format: cell-based; conditions: BT-549
NCI-H460 = format: cell-based; conditions: NCI-H460
RPMI-8226 = format: cell-based; conditions: RPMI-8226
SK-MEL-2 = format: cell-based; conditions: SK-Mel-2, five dose
CAKI-1 = format: cell-based; conditions: CAKI-1
[3] = Homo sapiens, five dose, read-out: LC50 (the source's name)

With `O=c1c2cc(Cl)ccc2sc2c(NCc3ccccc3)nc3ccccc3c12` [Compound N25, 6-(Benzylamino)-10-chloro-12H-thiochromeno[2,3-c]quinolin-12-one] the GI50 (SK-MEL-5; Homo sapiens, five dose) was 4.23 µM, the LC50 (SK-MEL-5; Homo sapiens, five dose) was greater than 100 µM and the Growth percent (SK-MEL-5; 10^−5 molar) was 92.81%. For the same compound, the TGI (SK-MEL-5; five dose) was greater than 100 µM, the GI50 (M14; Homo sapiens, five dose) was greater than 100 µM and the LC50 (M14; Homo sapiens, five dose) was greater than 100 µM. The Growth percent (M14; 10^−5 molar) was 87.29%, the TGI (M14; five dose) was greater than 100 µM and the Growth percent (HCC-2998; 10^−5 molar) was 95.77%. For the same compound, the TGI (HCC-2998; five dose) was greater than 100 µM, the GI50 (HCC-2998; Homo sapiens, five dose) was greater than 100 µM and the LC50 (HCC-2998; Homo sapiens, five dose) was greater than 100 µM. It also gave a Growth percent (HCT-116; 10^−5 molar) of 66.87%, a TGI (HCT-116; five dose) greater than 100 µM and a GI50 (HCT-116; Homo sapiens, five dose) of 5.59 µM. The LC50 (concentration killing 50% of cells) (HCT-116; Homo sapiens, five dose) was greater than 100 µM, the TGI (HOP-92) was 7.53 µM and the GI50 (HOP-92; Homo sapiens) was 1.75 µM. The LC50 (HOP-92; Homo sapiens) was 53.6 µM, the Growth percent (CCRF-CEM; 10^−5 molar) was 102.34% and the TGI (CCRF-CEM; five dose) was greater than 100 µM. The GI50 (CCRF-CEM; Homo sapiens, five dose) was greater than 100 µM, the CC50 (CCRF-CEM; [3]) was greater than 100 µM and the GI50 (IGROV1; Homo sapiens, IGROV-1, five dose) was 4.64 µM. The CC50 (IGROV1; Homo sapiens, IGROV-1, five dose, read-out: LC50 (the source's name)) was greater than 100 µM, the Growth percent (IGROV1; 10^−5 molar) was 53.42% and the TGI (IGROV1; five dose) was greater than 100 µM. It also gave a GI50 (SK-OV-3; Homo sapiens, five dose) of 3.56 µM, a CC50 (SK-OV-3; [3]) greater than 100 µM and a Growth percent (SK-OV-3; 10^−5 molar) of 36.71%. The TGI (SK-OV-3; five dose) was 13.90 µM, the GI50 (PC-3; Homo sapiens, five dose) was 56.9 µM and the CC50 (PC-3; [3]) was greater than 100 µM. The Growth percent (PC-3; 10^−5 molar) was 72.70%, the TGI (PC-3; five dose) was greater than 100 µM and the GI50 (SF-539; Homo sapiens, five dose) was 4.49 µM. It also gave an LC50 (SF-539; Homo sapiens, five dose) greater than 100 µM, a Growth percent (SF-539; 10^−5 molar) of 80.59% and a TGI (SF-539; five dose) of 46.40 µM. For the same compound, the Growth percent (HL-60(TB)) was 98.82%, the IC50 (TOP I (Topoisomerase I) [1]) was roughly 25 µM and the Growth percent (COLO 205; 10^−5 molar) was 80.79%. It also gave a TGI (COLO 205; five dose) greater than 100 µM, an LC50 (COLO 205; Homo sapiens, five dose) greater than 100 µM and a GI50 (OVCAR-4; Homo sapiens, five dose) of 15 µM. For the same compound, the Growth percent (OVCAR-4; 10^−5 molar) was 27.24%, the TGI (OVCAR-4; five dose) was 3.74 µM and the GI50 (UACC-257; Homo sapiens, five dose) was greater than 100 µM. The CC50 (UACC-257; [3]) was greater than 100 µM, the Growth percent (UACC-257; 10^−5 molar) was 83.24% and the TGI (UACC-257; five dose) was greater than 100 µM. For the same compound, the “inhibitory effect in TOP I activity assay compared with CPT” value (TOP I (Topoisomerase I) [2]) was “more potent inhibitory effects than CPT”, the Growth percent (OVCAR-3) was 76.59% and the Growth percent (BT-549; 10^−5 molar) was 97.19%. For the same compound, the TGI (BT-549; five dose) was greater than 100 µM, the GI50 (BT-549; Homo sapiens, five dose) was 20.5 µM and the CC50 (BT-549; [3]) was greater than 100 µM. For the same compound, the GI50 (NCI-H460; Homo sapiens, five dose) was 5 µM, the LC50 (NCI-H460; Homo sapiens, five dose) was greater than 100 µM and the Growth percent (NCI-H460; 10^−5 molar) was 64.41%. The TGI (NCI-H460; five dose) was greater than 100 µM, the GI50 (RPMI-8226; Homo sapiens, five dose) was greater than 100 µM and the CC50 (RPMI-8226; [3]) was greater than 100 µM. It also gave a Growth percent (RPMI-8226; 10^−5 molar) of 88.54%, a TGI (RPMI-8226; five dose) greater than 100 µM and a GI50 (SK-MEL-2; Homo sapiens) of 10.6 µM. For the same compound, the LC50 (SK-MEL-2; Homo sapiens) was 96.5 µM, the TGI (SK-MEL-2) was 31.90 µM and the Growth percent (CAKI-1; 10^−5 molar) was 80.38%. For the same compound, the TGI (CAKI-1; five dose) was greater than 100 µM, the GI50 (CAKI-1; Homo sapiens, five dose) was 6.07 µM and the CC50 (CAKI-1; [3]) was greater than 100 µM.

— patent US8927717B1, “Thiochromeno[2,3-c]quinolin-12-one derivatives, preparation method and application thereof” (National Defense Medical Center, priority 2014, dated 2015)
